Laboratory results from patent publication US4194006A, “Therapeutic application of acetyl-d,l-carnitine and other acyl derivatives of d,l-carnitine” (priority 1977, dated 1980).
Where two headings read alike, the source gives them in different places.

What was measured:
isolated rabbit hearts [1] = assay: cardiokinetic effect on isolated heart (Langendorff): contractile force after anoxia, positive inotropic effect; settings: 10 minutes from interruption of anoxic period
Experimental: (§1) The cardiokinetic effect on isolated heart was also investigated as follows. Rabbit hearts isolated by the Langendorff method were perfused with oxygenized ringer solution at 38.2° C. The isometric contractions, electrocardiogram and coronary flow were recorded using a "Battaglia-Rangoni" polygraph. By removing the oxygen from the perfusion fluid, metabolic damage was induced in the cardia muscle, up to an 80% reduction in the cardiac contractile force.
(§2) Under these conditions of prolonged anoxia the aerobic glycolysis of the myocardium is slowed down, accompanied by the storage of acid catabolites due to both the accumulation of pyruvic acid and its conversion to lactic acid which cannot be utilized because of the depression of pyridine enzymes, such as LDH (lactodehydrogenase). This has repercussions on the anaerobic glycolysis affecting an ever increasing number of enzymes, accompanied by a progressive and increasingly critical exhaustion of the myocardium. Thus a whole series of cardiac muscle fatigue levels occurs which can be observed by the behavior of the examined parameters, namely the contractile force, coronary flow, heart rate and cardiac rhythm. As soon as the contractile force was reduced by 80%, the perfusion fluid was once again oxygenized either without adding other compounds (controls) or with the addition of the compounds under examination.
Table 3 below gives the percentage values of the contractile force of the heart, showing a positive inotropic effect, calculated after 10 minutes from the interruption of the anoxic period (myocardial restoration).

isolated rat atrium = assay: antiarrhythmic effect, isolated rat atrium method of M. Libonati and G. Segre; settings: Rattus norvegicus; for inhibition at 0.1 µg/mL / activation at 0.1 µg/mL: 1·10^-4 g/lt; for inhibition at 0.1 µg/mL / inhibition at 0.01 µg/mL / inhibition at 0.001 µg/mL: decrease; for activation at 0.1 µg/mL / activation at 0.01 µg/mL / activation at 0.001 µg/mL: increase; for inhibition at 0.01 µg/mL / activation at 0.01 µg/mL: 1·10^-5 g/lt; for inhibition at 0.001 µg/mL / activation at 0.001 µg/mL: 1·10^-6 g/lt
isolated rabbit hearts [2] = assay: coronary vasodilator effect: coronary flow, isolated heart (Langendorff)
Experimental: as §1, §2

female rats = assay: antifatigue effect: rota-rod; format: in vivo, rat; settings: Rattus norvegicus, ip, 0.25 h; for responders at 300 mg/kg: 300 mg/kg i.p.; for responders at 300 mg/kg / responders at 400 mg/kg / responders at 600 mg/kg: read-out: percentage of animals staying on the rota-rod more than 180 seconds; for responders at 400 mg/kg: 400 mg/kg i.p.; for responders at 600 mg/kg: 600 mg/kg i.p.; for responders at 0.25 mg/kg: read-out: percentage of animals staying on the rota-rod more than 180 seconds, 0.25 mg/kg i.p.; for responders at 0.5 mg/kg: read-out: percentage of animals staying on the rota-rod more than 180 seconds, 0.50 mg/kg i.p.; for responders at 1 mg/kg: read-out: percentage of animals staying on the rota-rod more than 180 seconds, 1.00 mg/kg i.p.
Experimental: The antifatigue effect was also examined with the following results. The antifatigue effect was investigated by administering the compounds of the formula (I) according to the present application to female rats intraperitoneally in saline solution and saline solution alone to the controls by the same route. Every 15 minutes (sessions) after treatment, the animals were placed on a 6 cm diameter rod, rotating at 16 r.p.m. The percentage of the animals capable of staying on the rota-rod for a duration of more than 180 seconds was then recorded.

[3] = read-out: Mean percent variation versus controls: excitability (-%)
[4] = read-out: Mean percent variation versus controls: frequency max (-%)
[5] = read-out: Mean percent variation versus controls: refractory period (+%)
[6] = read-out: Mean percent variation versus controls: rheobase (+%)
[7] = session 6 (every 15 minutes), * p < 0.05

**Q.** How did the “Contractile force, Mean ± S.E.” value (isolated rabbit hearts [1]; 1·10^-5 g/lt) turn out when `CCCC(=O)OC(CC(=O)[O-])C[N+](C)(C)C` (racemic) [butyryl-d,l-carnitine] was run?
**A.** 51.5 ± 5.02%

**Q.** What about the “Contractile force, Mean ± S.E.” value (isolated rabbit hearts [1]; 1·10^-6 g/lt) of the same compound?
**A.** 30.6 ± 4.51%

**Q.** What about the “Contractile force, Mean ± S.E.” value (isolated rabbit hearts [1]; 5·10^-6 g/lt) of the same compound?
**A.** 35.6 ± 6.19%

**Q.** And the inhibition at 0.1 µg/mL (isolated rat atrium; [3])?
**A.** 63.7%

**Q.** And the inhibition at 0.1 µg/mL (isolated rat atrium; [4])?
**A.** 62.3%

**Q.** What about the activation at 0.1 µg/mL (isolated rat atrium; [5]) of the same compound?
**A.** 38%

**Q.** What about the activation at 0.1 µg/mL (isolated rat atrium; [6]) of the same compound?
**A.** 55%

**Q.** What about the inhibition at 0.01 µg/mL (isolated rat atrium; [3]) of the same compound?
**A.** 31.9%

**Q.** What about the inhibition at 0.01 µg/mL (isolated rat atrium; [4]) of the same compound?
**A.** 30.4%

**Q.** What about the activation at 0.01 µg/mL (isolated rat atrium; [5]) of the same compound?
**A.** 25.9%

**Q.** And the activation at 0.01 µg/mL (isolated rat atrium; [6])?
**A.** 40.8%

**Q.** And the inhibition at 0.001 µg/mL (isolated rat atrium; [3])?
**A.** 12.9%

**Q.** And the inhibition at 0.001 µg/mL (isolated rat atrium; [4])?
**A.** 24.8%

**Q.** And the activation at 0.001 µg/mL (isolated rat atrium; [5])?
**A.** 18.2%

**Q.** And the activation at 0.001 µg/mL (isolated rat atrium; [6])?
**A.** 28.3%

**Q.** And the “Coronary flow, Mean ± S.E.” value (isolated rabbit hearts [2]; 1·10^-5 g/lt)?
**A.** 90.12 ± 8.18%

**Q.** What about the “Coronary flow, Mean ± S.E.” value (isolated rabbit hearts [2]; 1·10^-6 g/lt) of the same compound?
**A.** 74.01 ± 6.19%

**Q.** And the responders at 300 mg/kg (female rats; session 1 (every 15 minutes))?
**A.** 0%

**Q.** And the responders at 300 mg/kg (female rats; session 2 (every 15 minutes))?
**A.** 0%

**Q.** And the responders at 300 mg/kg (female rats; session 3 (every 15 minutes))?
**A.** 0%

**Q.** And the responders at 300 mg/kg (female rats; session 4 (every 15 minutes))?
**A.** 0%

**Q.** And the responders at 300 mg/kg (female rats; session 5 (every 15 minutes))?
**A.** 0%

**Q.** And the responders at 300 mg/kg (female rats; session 6 (every 15 minutes))?
**A.** 10%

**Q.** What about the responders at 400 mg/kg (female rats; session 1 (every 15 minutes)) of the same compound?
**A.** 0%

**Q.** And the responders at 400 mg/kg (female rats; session 2 (every 15 minutes))?
**A.** 0%

**Q.** And the responders at 400 mg/kg (female rats; session 3 (every 15 minutes))?
**A.** 0%

**Q.** What about the responders at 400 mg/kg (female rats; session 4 (every 15 minutes)) of the same compound?
**A.** 10%

**Q.** And the responders at 400 mg/kg (female rats; session 5 (every 15 minutes))?
**A.** 10%

**Q.** And the responders at 400 mg/kg (female rats; [7])?
**A.** 20%

**Q.** And the responders at 600 mg/kg (female rats; session 1 (every 15 minutes))?
**A.** 0%

**Q.** And the responders at 600 mg/kg (female rats; session 2 (every 15 minutes))?
**A.** 0%

**Q.** And the responders at 600 mg/kg (female rats; session 3 (every 15 minutes))?
**A.** 10%

**Q.** What about the responders at 600 mg/kg (female rats; session 4 (every 15 minutes)) of the same compound?
**A.** 20%

**Q.** What about the responders at 600 mg/kg (female rats; session 5 (every 15 minutes)) of the same compound?
**A.** 20%

**Q.** What about the responders at 600 mg/kg (female rats; [7]) of the same compound?
**A.** 40%

**Q.** For `CC(N)Cc1ccccc1` (racemic) [d,l-amphetamine, reference compound], which responders at 0.25 mg/kg (female rats; session 1 (every 15 minutes)) is on record?
**A.** 0%

**Q.** What about the responders at 0.25 mg/kg (female rats; session 2 (every 15 minutes)) of the same compound?
**A.** 12.5%

**Q.** What about the responders at 0.25 mg/kg (female rats; session 3 (every 15 minutes)) of the same compound?
**A.** 25%

**Q.** What about the responders at 0.25 mg/kg (female rats; session 4 (every 15 minutes)) of the same compound?
**A.** 25%

**Q.** What about the responders at 0.25 mg/kg (female rats; session 5 (every 15 minutes)) of the same compound?
**A.** 25%

**Q.** What about the responders at 0.25 mg/kg (female rats; session 6 (every 15 minutes)) of the same compound?
**A.** 25%

**Q.** And the responders at 0.5 mg/kg (female rats; session 1 (every 15 minutes))?
**A.** 0%

**Q.** And the responders at 0.5 mg/kg (female rats; session 2 (every 15 minutes))?
**A.** 5.88%

**Q.** And the responders at 0.5 mg/kg (female rats; session 3 (every 15 minutes))?
**A.** 11.8%

**Q.** And the responders at 0.5 mg/kg (female rats; session 4 (every 15 minutes))?
**A.** 23.5%

**Q.** And the responders at 0.5 mg/kg (female rats; session 5 (every 15 minutes))?
**A.** 29.4%

**Q.** And the responders at 0.5 mg/kg (female rats; session 6 (every 15 minutes))?
**A.** 35.3%

**Q.** And the responders at 1 mg/kg (female rats; session 1 (every 15 minutes))?
**A.** 0%

**Q.** And the responders at 1 mg/kg (female rats; session 2 (every 15 minutes))?
**A.** 8.33%

**Q.** What about the responders at 1 mg/kg (female rats; session 3 (every 15 minutes)) of the same compound?
**A.** 25%

**Q.** And the responders at 1 mg/kg (female rats; session 4 (every 15 minutes))?
**A.** 33.3%

**Q.** And the responders at 1 mg/kg (female rats; session 5 (every 15 minutes), * p < 0.05)?
**A.** 58.3%

**Q.** What about the responders at 1 mg/kg (female rats; [7]) of the same compound?
**A.** 58.3%

**Q.** Which results are given for `C=C[C@H]1C[N@@]2CC[C@H]1C[C@@H]2[C@@H](O)c1ccnc2ccc(OC)cc12` [Quinidine, reference compound]?
**A.** inhibition at 0.1 µg/mL (isolated rat atrium; [3]): 189%; inhibition at 0.1 µg/mL (isolated rat atrium; [4]): 71.2%; activation at 0.1 µg/mL (isolated rat atrium; [5]): 57.4%; activation at 0.1 µg/mL (isolated rat atrium; [6]): 54.1%; inhibition at 0.01 µg/mL (isolated rat atrium; [3]): 23.4%; inhibition at 0.01 µg/mL (isolated rat atrium; [4]): 24.1%; activation at 0.01 µg/mL (isolated rat atrium; [5]): 20.4%; activation at 0.01 µg/mL (isolated rat atrium; [6]): 25.1%; inhibition at 0.001 µg/mL (isolated rat atrium; [3]): 16.9%; inhibition at 0.001 µg/mL (isolated rat atrium; [4]): 11.7%; activation at 0.001 µg/mL (isolated rat atrium; [5]): 3.12%; activation at 0.001 µg/mL (isolated rat atrium; [6]): 7.14%
